According to patent US20030105045A1, “Artificial transcriptional factors and methods of use” (priority 2000, published 2003):

What was measured:
[1] = tested on: transcription template with 5 copies of ATF binding sites upstream of minimal HSV thymidine kinase promoter driving CAT reporter gene, BHK-21 cells; assay: Transient cotransfection CAT reporter assay in BHK-21 cells, template with ATF binding sites; format: cell-based; details: 50 nM ATFs, 1 microgram plasmid, LipofectAMINE, harvested 48 hours after transfection
Description: The ability of ATFs to activate transcription in vivo was examined by transient cotransfection assays in BHK-21 tissue culture cells. As a control template, a reporter construct containing the minimal HSV thymidine kinase promoter driving the expression of chloramphenicol acetyl transferase (CAT) reporter gene was used. The transcription template was constructed by incorporating the oligonucleotide with 5 copies of ATF binding sites in between the HindIII and BamHI restriction sites of the polylinker upstream of the control template promoter (FIG. 6A). The transfection mixture contained 1 microgram of the plasmid DNA and 50 nM ATFs. Transfections were performed by using polycationic lipid LipofectAMINE (Life Technologies). Cells were harvested 48 hours after transfection and CAT assays were performed using FAST CAT (Molecular Probes, Inc.) as substrate, and visualized and quantitated on a Fluorimager (Molecular Dynamics). Each reporter construct shown in FIG. 6A was transfected into cells with and without ATF molecules and the activation signal was measured with standard methods.

[2] = tested on: control template containing five GAL4 binding sites; assay: In vitro run-off transcription assay with HeLa crude nuclear extract, control template; format: biochemical; details: data not shown
Description: (§1) Two 26-base oligonucleotides having the sequence of SEQ. ID NO: 9 and SEQ. ID NO: 10 were annealed and ligated to yield a series of double-stranded DNA fragments containing multiple binding sites for triple-helix formation. A fragment containing 5 copies of the site as shown in the duplex of SEQ ID NO: 9 and SEQ ID NO: 10 was purified by agarose gel electrophoresis and inserted into the HindIII restriction site in the polylinker of an embodiment of the G5E4T series of transcription templates.
(§2) In FIG. 3A, the control template contains […] five GAL4 and five ATF binding sites incorporated in the promoter at −53 and −155 bp relative to the +1 transcription start site, respectively; and in FIG. 3B the ATF assay template contains five ATF binding sites incorporated at −65 bp.
The resulting plasmids were linearized by digestion with EcoRI, purified and the linear templates were stored in ultra-pure water at −20° C. […]
(§3) The templates for in vitro transcription were made by inserting 5 direct repeats of a triple helix binding DNA sequence having a sequence of SEQ ID NO: 11 (5′[…]3′) into the Hind III restriction site in the polylinker of the GnE4T series of transcription templates (Lin, Y. S. et al., Cell 5A: 659-664 (1988)). […] The quantitation of signals was performed with Fuji MacBAS software.

[3] = tested on: ATF assay template containing five ATF binding sites in the promoter; assay: In vitro run-off transcription assay with HeLa crude nuclear extract, ATF assay template; format: biochemical; details: for level/strength of transcriptional activation in words (compared with GAL4-VP16 or basal): ATF assay template
Description: as §1, §2
The resulting plasmids were linearized by digestion with EcoRI, purified and the linear templates were stored in ultra-pure water at −20° C. The transcription assay was initiated by incubation of 200 ng of linearized transcription templates with ATFs in the binding buffer containing 10 mM Tris pH 8, 40 mM MgCl2 and 100 mM KCl at room temperature for 24 hours. The total volume of binding reaction was 5 microliters. After binding reaction, salt and buffer conditions were adjusted by the addition of 5 microliters of water, 6 microliters of 1×HeLa buffer (20 mM HEPES pH 7.9, 100 mM KCl, 0.2 mM EDTA, 0.5 mM DTT, 20% glycerol) and 5 microliters of HeLa crude nuclear extract (Promega, Madison Wis.). An aliquot of GAL4-VP16 protein (1 microliter total) was added to the control templates and all reactions were pre-incubated for 10 minutes at 30 degrees C. The transcription was initiated by the addition of 1 microliter of a mixture of ribonucleotide triphosphates (ATP, CTP, GTP, 10 mM each) and 0.5 microliters of ^32P-alpha-UTP (NEN, Boston, Mass.). After further incubation at 30° C. for 30 minutes all transcription reactions were terminated by the addition of 100 microliters of stop buffer (0.5 M sodium acetate, 0.2% SDS, 10 mM EDTA, 1 microgram/ml glycogen, 1 microgram/ml Proteinase K). The reactions were vortexed, incubated at 37° C. for 10 minutes, extracted with phenol/chloroform, and precipitated with 250 microliters of ice-cold ethanol. The pellets were dissolved in 20 microliters of standard denaturing formamide/dye mix and were loaded and run on a denaturing 6% polyacrylamide gel.
as §3

[4] = tested on: GAL4 DNA-binding domain fusion; details: cited from earlier work

## ATF(29): 22-mer TFO (SEQ ID NO:5), 5′ polyglycol linker, crosslinker-coupled 29 amino acid VP16 peptide (SEQ ID NO:8) (chain 1 ttgtggtgggtggggtgtgggt; chain 2 CGSDALDDFDLDMLGSDALDDFDLDMLGS; polyglycol linker, crosslinker conjugation; synthetic composition useful as artificial transcriptional factor)
[1]
  transcriptional activation above the basal level: 5 fold
[2]
  activation of transcription from control templates or other templates lacking ATF binding sites: does not activate transcription
[3]; FIG. 4 and FIG. 5
  level/strength of transcriptional activation in words (compared with GAL4-VP16 or basal): comparable to the level that could be obtained with GAL4-VP16
[3]; FIG. 4 and FIG. 5, listed as ATF
  level/strength of transcriptional activation in words (compared with GAL4-VP16 or basal): equal to, if not higher than
[3]; further increase in concentration leads to diminishing activation
  ATF concentrations at which these levels of activation (30-40 fold) are obtained: 2 to 40 nM
[3]; linearized template with five ATF binding sites, quantitation of 250 base RNA transcript
  activation of transcription above basal level: 30-40 fold

## CGSDALDDFDLDMLGSDALDDFDLDMLGS (synthetic composition useful as artificial transcriptional factor) [SEQ ID NO: 8]
[4]; Seipel et al. 1992, Nyanguile et al. 1997
  activity retained relative to full-length VP 16 when fused to the GAL4 DNA-binding domain: about 70%

## CGSDALDDFDLDML (synthetic composition useful as artificial transcriptional factor) [14-mer peptide derived from VP16]
[4]; Seipel et al.
  activity when fused to the GAL4 DNA binding domain through recombinant DNA techniques: inactive
